Measurements from patent US6916812B2, “Alpha-aminoamide derivatives as melanocortin agonists” (Bristol-Myers Squibb Company, priority 2001, dated 2005).
Where two headings read alike, the source gives them in different places.

Molecular target: T1, cloned human MC4R (Homo sapiens, UniProt P32245)
T1 construct: made in house; host or cells: Hi5 insect cells (baculovirus infection); membrane preparation
Assay: Membrane binding assay: competitive inhibition of [125I]NDP-α-MSH binding
Settings: for inhibition at 10 µM: read-out: Displacement Rate (%) (at 10 μM); for IC50: read-out: MC4R IC50

[1] = at 10 μM, [125I]NDP-α-MSH displacement

T1 sequence (P32245 whole entry): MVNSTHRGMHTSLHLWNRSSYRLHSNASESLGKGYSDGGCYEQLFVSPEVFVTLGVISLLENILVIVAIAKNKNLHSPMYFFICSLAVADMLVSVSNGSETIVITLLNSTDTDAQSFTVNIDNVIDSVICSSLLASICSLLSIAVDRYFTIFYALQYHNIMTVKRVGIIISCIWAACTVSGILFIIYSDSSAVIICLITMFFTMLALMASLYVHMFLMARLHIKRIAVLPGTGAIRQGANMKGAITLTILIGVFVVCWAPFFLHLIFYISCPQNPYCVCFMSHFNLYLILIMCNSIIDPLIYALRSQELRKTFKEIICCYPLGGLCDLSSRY

Row | inhibition at 10 µM [1] [%] | IC50 [nM] | Displacement Rate (%) (at 10 μM) [1] | SMILES | inhibition at 10 µM [%]
1 |  | 1500 to 3000 | +++ (+++ = 91-100) | N[C@@H](Cc1ccc(OCc2cccc(C(F)(F)F)c2)cc1)C(=O)N1CCN(Cc2cccc(Cl)c2Cl)CC1 [Example 187] | 
2 | 91 to 100 | < 1500 |  | N[C@@H](Cc1ccc(-c2ccc(F)cc2)cc1)C(=O)N1CCN(Cc2cccc(Cl)c2Cl)CC1 [Example 296] | 
3 |  | > 3000 | + (+ = 35-70) | COc1cccc(COc2ccc(C[C@H](N)C(=O)N3CCN(Cc4cccc(Cl)c4Cl)CC3)cc2)c1OC [Example 233] | 
4 |  | < 1500 | +++ (+++ = 91-100) | N[C@@H](Cc1ccc(OCc2ccc(Br)cc2)cc1)C(=O)N1CCN(Cc2cccc(Cl)c2Cl)CC1 [Example 186] | 
5 | 91 to 100 | 1500 to 3000 |  | Cc1ccccc1-c1ccc(C[C@H](N)C(=O)N2CCN(Cc3cccc(Cl)c3Cl)CC2)cc1 [Example 313] | 
6 | 91 to 100 | < 1500 |  | CCOc1ccc(-c2ccc(C[C@H](N)C(=O)N3CCN(Cc4cccc(Cl)c4Cl)CC3)cc2)cc1 [Example 310] | 
7 |  | < 1500 | +++ (+++ = 91-100) | N[C@@H](Cc1ccc(OCCc2ccc(Cl)cc2)cc1)C(=O)N1CCN(Cc2cccc(Cl)c2Cl)CC1 [Example 245] | 
8 |  | < 1500 | +++ (+++ = 91-100) | N[C@@H](Cc1ccc(OCCc2ccccc2-c2ccccc2)cc1)C(=O)N1CCN(Cc2cccc(Cl)c2Cl)CC1 [Example 253] | 
9 | 91 to 100 | < 1500 |  | Cc1ccc(-c2ccc(C[C@H](N)C(=O)N3CCN(Cc4cccc(Cl)c4Cl)CC3)cc2)cc1 [Example 290] | 
10 |  | < 1500 | +++ (+++ = 91-100) | N[C@@H](Cc1ccc(OCCc2ccc(Br)cc2)cc1)C(=O)N1CCN(Cc2cccc(Cl)c2Cl)CC1 [Example 241] | 
11 | 71 to 90 | 1500 to 3000 |  | CN(C)c1ccc(-c2ccc(C[C@H](N)C(=O)N3CCN(Cc4cccc(Cl)c4Cl)CC3)cc2)cc1 [Example 323] | 
12 |  | > 3000 | ++ (++ = 71-90) | N[C@@H](Cc1ccc(OCc2cc3c(cc2[N+](=O)[O-])OCO3)cc1)C(=O)N1CCN(Cc2cccc(Cl)c2Cl)CC1 [Example 229] | 
13 |  | 1500 to 3000 | +++ (+++ = 91-100) | CCOc1ccccc1COc1ccc(C[C@H](N)C(=O)N2CCN(Cc3cccc(Cl)c3Cl)CC2)cc1 [Example 221] | 
14 |  | 1500 to 3000 | +++ (+++ = 91-100) | COc1cc(COc2ccc(C[C@H](N)C(=O)N3CCN(Cc4cccc(Cl)c4Cl)CC3)cc2)cc(OC)c1 [Example 194] | 
15 | 71 to 90 | > 3000 |  | N[C@@H](Cc1ccc(-c2cccc([N+](=O)[O-])c2)cc1)C(=O)N1CCN(Cc2cccc(Cl)c2Cl)CC1 [Example 330] | 
16 |  | < 1500 | +++ (+++ = 91-100) | N[C@@H](Cc1ccc(OCc2ccc(-c3ccccc3)cc2)cc1)C(=O)N1CCN(Cc2cccc(Cl)c2Cl)CC1 [Example 198] | 
17 |  | < 1500 | +++ (+++ = 91-100) | N[C@@H](Cc1ccc(OCc2ccc(F)cc2F)cc1)C(=O)N1CCN(Cc2cccc(Cl)c2Cl)CC1 [Example 196] | 

The next lines start with the compound.

Row | SMILES | inhibition at 10 µM [1] [%] | IC50 [nM] | Displacement Rate (%) (at 10 μM) [1] | inhibition at 10 µM [%]
18 | N[C@@H](Cc1ccc(OCc2ccccc2)cc1)C(=O)N1CCN(Cc2ccc(C(F)(F)F)cc2C(F)(F)F)CC1 [Example 98] | 91 to 100 | 1500 to 3000 |  | 
19 | N[C@@H](Cc1ccc(OCc2ccccc2)cc1)C(=O)N1CCCN(Cc2ccccc2)CC1 [Example 60] | 35 to 70 | > 3000 |  | 
20 | N[C@@H](Cc1ccc(OCc2ccccc2)cc1)C(=O)N1CCN(Cc2ccccc2C(F)(F)F)CC1 [Example 94] | 91 to 100 | 1500 to 3000 |  | 
21 | CN(C)c1ccc(CN2CCCN(C(=O)[C@@H](N)Cc3ccc(OCc4ccccc4)cc3)CC2)cc1 [Example 79] | 35 to 70 | > 3000 |  | 
22 | N[C@@H](Cc1ccc(OCc2ccccc2)cc1)C(=O)N1CCCN(Cc2cc3c(cc2[N+](=O)[O-])OCO3)CC1 [Example 77] | 35 to 70 | > 3000 |  | 
23 | CC(C)(C)c1cc(CN2CCN(C(=O)[C@@H](N)Cc3ccc(OCc4ccccc4)cc3)CC2)cc(C(C)(C)C)c1O [Example 92] | 91 to 100 | < 1500 |  | 
24 | CCc1ccc(CN2CCN(C(=O)[C@@H](N)Cc3ccc(OCc4ccccc4)cc3)CC2)s1 [Example 131] | 35 to 70 | > 3000 |  | 
25 | N[C@@H](Cc1ccc(OCc2ccccc2)cc1)C(=O)N1CCCN(Cc2ccc(Cl)c(Cl)c2)CC1 [Example 17] | 91 to 100 | 1500 to 3000 |  | 
26 | N[C@@H](Cc1ccc(OCc2ccccc2)cc1)C(=O)N1CCN(Cc2ccc(Cl)cc2Cl)CC1 [Example 119] | 71 to 90 | > 3000 |  | 
27 | N[C@@H](Cc1ccc(OCc2ccccc2)cc1)C(=O)N1CCCN(Cc2ccc(C(F)(F)F)cc2F)CC1 [Example 28] | 71 to 90 | > 3000 |  | 
28 | O=C([C@H](Cc1ccc(OCc2ccccc2)cc1)NCCN1CCCCC1)N1CCN(Cc2cccc(Cl)c2Cl)CC1 [Example 176] | 91 to 100 | < 1500 |  | 
29 | CCOc1ccccc1CN1CCN(C(=O)[C@@H](N)Cc2ccc(OCc3ccccc3)cc2)CC1 [Example 116] | 71 to 90 | 1500 to 3000 |  | 
30 | N[C@@H](Cc1ccc(OCc2ccccc2)cc1)C(=O)N1CCCN(Cc2cccc(C(F)(F)F)c2)CC1 [Example 55] | 35 to 70 | > 3000 |  | 
31 | COc1cc(CN2CCN(C(=O)[C@@H](N)Cc3ccc(OCc4ccccc4)cc3)CC2)ccc1OCc1ccccc1 [Example 115] | 71 to 90 | > 3000 |  | 
32 | Cc1cccc(CN2CCCN(C(=O)[C@@H](N)Cc3ccc(OCc4ccccc4)cc3)CC2)n1 [Example 69] | 35 to 70 | > 3000 |  | 
33 | CCc1ccc(CN2CCN(C(=O)[C@@H](N)Cc3ccc(OCc4ccccc4)cc3)CC2)cc1 [Example 135] | 35 to 70 | > 3000 |  | 
34 | N[C@@H](Cc1ccc(OCc2ccccc2)cc1)C(=O)N1CCN(Cc2cc3c(cc2Cl)OCO3)CC1 [Example 124] |  | > 3000 |  | 71 to 90
35 | CN(C)CCN[C@@H](Cc1ccc(OCc2ccccc2)cc1)C(=O)N1CCN(Cc2cccc(Cl)c2Cl)CC1 [Example 175] | 91 to 100 | < 1500 |  | 
36 | N[C@@H](Cc1ccc(OCc2ccccc2)cc1)C(=O)N1CCN(Cc2ccc(Cl)c([N+](=O)[O-])c2)CC1 [Example 114] |  | > 3000 |  | 71 to 90
37 | N[C@@H](Cc1ccc(OCc2ccccc2)cc1)C(=O)N1CCCN(Cc2ccc(Cl)cc2Cl)CC1 [Example 52] | 35 to 70 | > 3000 |  | 
38 | N[C@@H](Cc1ccc(OCc2ccccc2)cc1)C(=O)N1CCN(CC2CCCCC2)CC1 [Example 113] | 71 to 90 | < 1500 |  | 
39 | COc1ccc(CCC(C)N2CCN(C(=O)[C@@H](N)Cc3ccc(OCc4ccccc4)cc3)CC2)cc1 (stereo partly shown) [Example 132] | 35 to 70 | > 3000 |  | 
40 | N[C@@H](Cc1ccc(OCc2ccccc2)cc1)C(=O)N1CCCN(Cc2cccc(Oc3cc(Cl)cc(Cl)c3)c2)CC1 [Example 4] | 91 to 100 | < 1500 |  | 
41 | Cc1cccc(CN2CCN(C(=O)[C@@H](N)Cc3ccc(OCc4ccccc4)cc3)CC2)c1 [Example 144] | 35 to 70 | > 3000 |  | 
